Values joined by “and” are separate entries in the source; they are usually repeats but may differ in a detail not shown here. Identical values can stand only once. Toxic doses and inconclusive results are not listed. Residues, ends and D or L forms follow the SMILES beside them. *: point of attachment. Cbz = O=C(OCc1ccccc1)*; OtBu = CC(C)(C)O*
Test system: BDF1 mice, P388 leukemia ip, median survival T/C
Test: NCI In Vivo Anticancer Drug Screen. Data for tumor model P388 Leukemia (intraperitoneal) in B6D2F1 (BDF1) mice
Settings: endpoint: median survival time, higher = longer survival
Procedure, shortened: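 In tumour-bearing mice, survival after compound treatment is set against the vehicle group and given as a quotient.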

[1] = dose: 100.0 mg/kg/injection, schedule: Q01DX009 (ip), vehicle: saline with Tween-80
[2] = dose: 100.0 mg/kg/injection, schedule: Q04DX003 (ip), vehicle: saline with Tween-80
[3] = dose: 200.0 mg/kg/injection, schedule: Q01DX009 (ip), vehicle: saline with Tween-80
[4] = dose: 200.0 mg/kg/injection, schedule: Q04DX003 (ip), vehicle: saline with Tween-80
[5] = dose: 400.0 mg/kg/injection, schedule: Q01DX009 (ip), vehicle: saline with Tween-80
[6] = dose: 400.0 mg/kg/injection, schedule: Q04DX003 (ip), vehicle: saline with Tween-80
[7] = dose: 12.5 mg/kg/injection, schedule: Q01DX009 (ip), vehicle: saline with Tween-80
[8] = dose: 25.0 mg/kg/injection, schedule: Q01DX009 (ip), vehicle: saline with Tween-80
[9] = dose: 50.0 mg/kg/injection, schedule: Q01DX009 (ip), vehicle: saline with Tween-80
[10] = dose: 200.0 mg/kg/injection, schedule: Q01DX009 (ip), vehicle: saline
[11] = dose: 100.0 mg/kg/injection, schedule: Q04DX003 (ip), vehicle: Klucel (hydroxypropylcellulose) (HPC)
[12] = dose: 200.0 mg/kg/injection, schedule: Q04DX003 (ip), vehicle: Klucel (hydroxypropylcellulose) (HPC)
[13] = dose: 400.0 mg/kg/injection, schedule: Q04DX003 (ip), vehicle: Klucel (hydroxypropylcellulose) (HPC)
[14] = dose: 50.0 mg/kg/injection, schedule: Q01DX009 (ip), vehicle: saline

COC(=O)C1=COC(C)C(C=O)C1CC(=O)O (stereo not given)
T/C (dose: 10.0 mg/kg/injection, schedule: Q04DX003 (ip), vehicle: saline): 113 % of control | T/C (dose: 22.0 mg/kg/injection, schedule: Q04DX003 (ip), vehicle: saline): 122 % of control | T/C (dose: 33.0 mg/kg/injection, schedule: Q04DX003 (ip), vehicle: saline): 120 % of control | T/C (dose: 50.0 mg/kg/injection, schedule: Q04DX003 (ip), vehicle: saline): 172 % of control | T/C (dose: 75.0 mg/kg/injection, schedule: Q04DX003 (ip), vehicle: saline): 95 % of control

CCOC(=O)C1C(=O)NC(=O)CC1C (stereo not given)
T/C [1]: 99 % of control | T/C [2]: 96 % of control | T/C [3]: 101 % of control | T/C [4]: 99 % of control | T/C [5]: 105 % of control | T/C [6]: 107 % of control

OC(CC1CCCCN1)c1ccccc1 (stereo not given)
T/C [7]: 99 % of control | T/C [8]: 99 % of control | T/C [9]: 94 % of control and 110 % of control

COCCOC(C)C(=O)C(O)S(=O)(=O)O (stereo not given)
T/C (dose: 132.0 mg/kg/injection, schedule: Q01DX009 (ip), vehicle: saline): 150 % of control | T/C [10]: 155 % of control | T/C (dose: 300.0 mg/kg/injection, schedule: Q01DX009 (ip), vehicle: saline): 155 % of control

CCCCCCCCCCN1CCOCCOCCN(CCCCCCCCCC)CCOCCOCC1
T/C (dose: 1.56 mg/kg/injection, schedule: Q01DX005 (ip), vehicle: saline with Tween-80): 113 % of control | T/C (dose: 3.13 mg/kg/injection, schedule: Q01DX005 (ip), vehicle: saline with Tween-80): 103 % of control | T/C (dose: 6.25 mg/kg/injection, schedule: Q01DX005 (ip), vehicle: saline with Tween-80): 113 % of control

CS(=O)(=O)OCCCCOS(C)(=O)=O
T/C (dose: 6.25 mg/kg/injection, schedule: Q01DX010 (ip), vehicle: saline): 100 % of control and 119 % of control | T/C [7]: 113 % of control | T/C (dose: 12.5 mg/kg/injection, schedule: Q01DX010 (ip), vehicle: saline): 122 % of control | T/C (dose: 20.0 mg/kg/injection, schedule: Q01DX010 (ip), vehicle: other): 120 % of control | T/C [8]: 104 % of control | T/C (dose: 40.0 mg/kg/injection, schedule: Q01DX010 (ip), vehicle: other): 120 % of control | T/C [9]: 104 % of control | T/C (dose: 60.0 mg/kg/injection, schedule: Q01DX010 (ip), vehicle: other): 120 % of control

Clc1ccc(N2CCN(CCCN3CCN(c4cccc(Cl)c4)CC3)CC2)cc1
T/C (dose: 50.0 mg/kg/injection, schedule: Q04DX003 (ip), vehicle: saline sonified): 100 % of control | T/C (dose: 100.0 mg/kg/injection, schedule: Q04DX003 (ip), vehicle: saline sonified): 100 % of control | T/C (dose: 200.0 mg/kg/injection, schedule: Q04DX003 (ip), vehicle: saline sonified): 91 % of control

Cc1cccc(S(=O)(=O)F)c1
T/C (dose: 37.5 mg/kg/injection, schedule: Q01DX009 (ip), vehicle: Klucel (hydroxypropylcellulose) (HPC)): 104 % of control | T/C (dose: 75.0 mg/kg/injection, schedule: Q01DX009 (ip), vehicle: Klucel (hydroxypropylcellulose) (HPC)): 95 % of control | T/C (dose: 150.0 mg/kg/injection, schedule: Q01DX009 (ip), vehicle: Klucel (hydroxypropylcellulose) (HPC)): 90 % of control

COc1ccc2c(c1OC)C(=O)NC2=O
T/C (dose: 50.0 mg/kg/injection, schedule: Q01DX008 (ip), vehicle: Klucel (hydroxypropylcellulose) (HPC)): 108 % of control | T/C (dose: 50.0 mg/kg/injection, schedule: Q04DX003 (ip), vehicle: Klucel (hydroxypropylcellulose) (HPC)): 100 % of control | T/C (dose: 100.0 mg/kg/injection, schedule: Q01DX008 (ip), vehicle: Klucel (hydroxypropylcellulose) (HPC)): 88 % of control | T/C [11]: 100 % of control | T/C [12]: 90 % of control

COc1cc2c(cc1OC)-c1ncnc(-c3ccccc3)c1C2
T/C (dose: 100.0 mg/kg/injection, schedule: Q01DX009 (ip), vehicle: Klucel (hydroxypropylcellulose) (HPC)): 100 % of control | T/C [11]: 108 % of control | T/C (dose: 200.0 mg/kg/injection, schedule: Q01DX009 (ip), vehicle: Klucel (hydroxypropylcellulose) (HPC)): 100 % of control | T/C [12]: 91 % of control | T/C (dose: 400.0 mg/kg/injection, schedule: Q01DX009 (ip), vehicle: Klucel (hydroxypropylcellulose) (HPC)): 95 % of control | T/C [13]: 95 % of control

CCCCNC(C)C1(O)Cc2c(O)c3c(c(O)c2C(OC2CC(N)C(O)C(C)O2)C1)C(=O)c1c(OC)cccc1C3=O (stereo not given)
T/C (dose: 10.0 mg/kg/injection, schedule: Q01DX009 (ip), vehicle: water): 157 % of control | T/C (dose: 20.0 mg/kg/injection, schedule: Q01DX009 (ip), vehicle: water): 168 % of control | T/C (dose: 25.0 mg/kg/injection, schedule: Q04DX003 (ip), vehicle: water): 116 % of control | T/C (dose: 40.0 mg/kg/injection, schedule: Q01DX009 (ip), vehicle: water): 185 % of control | T/C (dose: 50.0 mg/kg/injection, schedule: Q04DX003 (ip), vehicle: water): 114 % of control | T/C (dose: 100.0 mg/kg/injection, schedule: Q04DX003 (ip), vehicle: water): 105 % of control | T/C (dose: 200.0 mg/kg/injection, schedule: Q04DX003 (ip), vehicle: water): 151 % of control | T/C (dose: 400.0 mg/kg/injection, schedule: Q04DX003 (ip), vehicle: water): 118 % of control

CSc1nc(N)nc2c1ncn2C1CC(O)C(CO)O1 (stereo not given)
T/C [14]: 95 % of control | T/C (dose: 100.0 mg/kg/injection, schedule: Q01DX009 (ip), vehicle: saline): 95 % of control and 101 % of control | T/C [10]: 100 % of control | T/C (dose: 400.0 mg/kg/injection, schedule: Q01DX009 (ip), vehicle: saline): 97 % of control

OCC1CN(c2ccccc2)N=N1 (stereo not given)
T/C (dose: 50.0 mg/kg/injection, schedule: Q04DX002 (ip), vehicle: saline + alcohol): 107 % of control | T/C (dose: 100.0 mg/kg/injection, schedule: Q04DX002 (ip), vehicle: saline + alcohol): 107 % of control | T/C (dose: 200.0 mg/kg/injection, schedule: Q04DX002 (ip), vehicle: saline + alcohol): 116 % of control

COC(=O)C(CCC(=O)OC(C)(C)C)NC(=O)C(NC(=O)OCc1ccccc1)C(C)C (stereo not drawn) (Cbz-Val-Glu(OtBu)-OMe; configuration not given here)
T/C [1]: 100 % of control | T/C [3]: 100 % of control | T/C [5]: 95 % of control

O=C(Nc1ccc(Cl)c(Cl)c1)Nc1c(Oc2ccc(Cl)c(Cl)c2)ccc(Cl)c1S(=O)(=O)O
T/C (dose: 6.25 mg/kg/injection, schedule: Q01DX009 (ip), vehicle: saline): 118 % of control | T/C (dose: 12.5 mg/kg/injection, schedule: Q01DX009 (ip), vehicle: saline): 109 % of control | T/C (dose: 25.0 mg/kg/injection, schedule: Q01DX009 (ip), vehicle: saline): 104 % of control | T/C (dose: 35.0 mg/kg/injection, schedule: Q01DX009 (ip), vehicle: saline): 118 % of control | T/C [14]: 105 % of control | T/C (dose: 55.0 mg/kg/injection, schedule: Q01DX009 (ip), vehicle: saline): 113 % of control | T/C (dose: 80.0 mg/kg/injection, schedule: Q01DX009 (ip), vehicle: saline): 111 % of control

CC(=O)Oc1cccnc1C(C#N)C(C)=O (stereo not given)
T/C (dose: 50.0 mg/kg/injection, schedule: Q01DX005 (ip), vehicle: saline with Tween-80): 90 % of control | T/C (dose: 100.0 mg/kg/injection, schedule: Q01DX005 (ip), vehicle: saline with Tween-80): 99 % of control | T/C (dose: 200.0 mg/kg/injection, schedule: Q01DX005 (ip), vehicle: saline with Tween-80): 87 % of control

CCCCC/C=C/c1c(C)[nH]c2ccccc2c1=O
T/C [11]: 95 % of control | T/C [12]: 95 % of control | T/C [13]: 113 % of control

CCCC(F)C(=O)OCC (stereo not given)
T/C [1]: 90 % of control | T/C [2]: 100 % of control | T/C [3]: 104 % of control | T/C [4]: 109 % of control | T/C [5]: 118 % of control | T/C [6]: 100 % of control

COC(=O)C(CC(O)c1ccccc1)N1CCOCC1 (stereo not given)
T/C (dose: 100.0 mg/kg/injection, schedule: Q01DX001 (ip), vehicle: saline with Tween-80): 100 % of control | T/C (dose: 200.0 mg/kg/injection, schedule: Q01DX001 (ip), vehicle: saline with Tween-80): 100 % of control | T/C (dose: 400.0 mg/kg/injection, schedule: Q01DX001 (ip), vehicle: saline with Tween-80): 100 % of control

CCCNC(=S)NNC(=O)c1ccncc1
T/C (dose: 6.25 mg/kg/injection, schedule: Q01DX009 (ip), vehicle: saline with Tween-80): 98 % of control | T/C [7]: 97 % of control | T/C [8]: 100 % of control | T/C [9]: 90 % of control | T/C [1]: 100 % of control

Source: PubChem BioAssay AID328 (DTP/NCI, 2004)
